Reference: patent US8802597B2, “Herbicidal pyrimidines” (E I du Pont de Nemours and Company, priority 2003, dated 2014)

Test system: winter barley (Hordeum vulgare)
Assay: Test D pre/postemergence
Assay type: in vivo
Settings: scale 0 to 100 (100 = complete control)
Method in brief: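 Responses are visual ratings on a 0 to 100 scale, with 100 meaning complete control, taken 15 to 25 days after treatment in a controlled growth environment. Applications were pre- and postemergence (1- to 4-leaf plants) using a non-phytotoxic solvent formulation with surfactant.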

| SMILES | Plant response rating, Barley (Postemergence, 62 g ai/ha) | Plant response rating, Barley (Postemergence, 125 g ai/ha) | Plant response rating, Barley (Postemergence, 250 g ai/ha) | Plant response rating, Barley (Preemergence, 62 g ai/ha) | Plant response rating, Barley (Preemergence, 125 g ai/ha) | Plant response rating, Barley (Preemergence, 250 g ai/ha) |
| --- | --- | --- | --- | --- | --- | --- |
| CCOC(=O)Cc1nc(C2CC2)nc(N=CN(C)C)c1Br [Compound 33] | 45 | 45 | 45 | 10 | 35 | 45 |
| COC(=O)c1nc(C2CC2)nc(NO)c1Br [Compound 35] | 65 | 65 | 70 | 40 | 45 | 45 |
